These results are taken from ChEMBL document CHEMBL1141050, “Design and synthesis of a novel peptidomimetic inhibitor of HIV-1 Tat-TAR interactions: squaryldiamide as a new potential bioisostere of unsubstituted guanidine” (Bioorg Med Chem Lett, 2005).

Holding throughout (parameters): species or system Human immunodeficiency virus 1
The target of assay [1] is T1, Protein Tat (Human immunodeficiency virus type 1 group M subtype B (isolate HXB2)(HIV-1), UniProt P04608).
T1 sequence (P04608 whole entry): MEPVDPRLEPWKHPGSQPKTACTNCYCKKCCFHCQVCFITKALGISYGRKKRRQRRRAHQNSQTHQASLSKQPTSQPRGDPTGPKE
Kind of assay: In vitro binding affinity towards Tat/TAR to determine interaction between TAR RNA and Tat peptide at room temperature using fluorescence spectrophotometer.

In assay [2] the target is T1, Protein Tat. As to the kind of experiment: In vitro binding affinity towards Tat/TAR to determine interaction between TAR RNA and Tat peptide at room temperature using fluorescence spectrophotometer; nb denotes no binding.
Assay [3] deals with T1, Protein Tat. As to the kind of experiment: In vitro binding affinity towards Tat/TAR to determine interaction between TAR RNA and Tat peptide at room temperature using fluorescence spectrophotometer; mb denotes multiple binding.

In general, Kd refers to the concentration at which binding is half-saturated. Low values mean a tighter complex, high ones a looser complex.

On Protein Tat [1], `N=c1c(O)c(O)/c1=N\CCCC(N)COC(=O)NC(CCCN=C(N)N)COC(N)=O` (configuration not stated) registered a Kd of 741 µM.

As to `N=C(N)NCCC[C@H](N)COC(=O)N(CCCCN)CC(=O)N[C@H](CCCCN)COC(N)=O`, the equilibrium dissociation constant (Kd) at Protein Tat [1] is 1.8 µM.

For the molecule `NCCCC[C@H](COC(N)=O)NC(=O)CN(CCCCN)C(=O)OC[C@@H](N)CCCN=C(N)N[N+](=O)[O-]`, the Kd at Protein Tat [1] was 952 µM.

As to `N=c1c(O)c(O)/c1=N\CCCC(N)COC(=O)NC(CCCCN)COC(N)=O` (configuration not stated), the Kd entry on Protein Tat [2] is “Not Active”.

In the case of `N=c1c(O)c(O)/c1=N/CCC[C@H](N)COC(=O)N(CCCCN)CC(=O)N[C@H](CCCCN)COC(N)=O`, the dissociation constant Kd on Protein Tat [1] came out at 7.7 µM.

Regarding `NC(=O)OCCNC(=O)CNC(=O)OC[C@@H](N)CCCN=C(N)N`, on Protein Tat [3], the dissociation constant (Kd) result was “Multiple binding”.

Consider `NCCCC[C@H](COC(N)=O)NC(=O)CN(CCCCN)C(=O)OCCN`, for which the Kd entry at Protein Tat [2] is on record as “Not Active”.
